Test results from ChEMBL document CHEMBL3769305, “Glucose-functionalized amino-OPEs as biocompatible photosensitizers in PDT” (Eur J Med Chem, 2016).

Assay: Induction of singlet-oxygen generation at 5 x 10^-5 M irradiated at 380 nm by uric acid degradation assay
Format: physicochemical
Details: 0.38 µM; call rule not given here

COc1cc(C#Cc2cc(OC)c(C#Cc3cc(OC)c(C#CCO[C@@H]4O[C@H](CO)[C@@H](O)[C@H](O)[C@H]4O)cc3OC)cc2OC)c(OC)cc1C#CCO[C@@H]1O[C@H](CO)[C@@H](O)[C@H](O)[C@H]1O
Activity: Not Active
